{"source": "patent US20070128217A1", "about": "(priority 2003, published 2007)", "key": {"[1]": {"tested_on": "antibodies in sera from SARS patients (sera 1a, 1b, 2, 6, 37, 62, London, SARS-yellow, SARS-green)", "type": "binding, human", "parameters": "Binding of serum 6 to linear peptides of protein X1 of SARS-CoV Urbani / Binding of serum 37 to linear peptides of protein X1 of SARS-CoV Urbani / Binding of serum 6 to looped/cyclic peptide (PEPSCAN-ELISA) / Binding of serum 37 to looped/cyclic peptide (PEPSCAN-ELISA) / Binding of serum 37 to looped/cyclic peptides of protein X1 of SARS-CoV Urbani / Binding of serum 6 to linear peptides of protein X2 / Binding of serum 37 to linear peptides of protein X2 / Binding of serum 37 to looped/cyclic peptides of protein X2 of SARS-CoV Urbani / Binding of serum 6 to linear peptides of protein M of SARS-CoV Urbani / Binding of serum 37 to linear peptides of protein M of SARS-CoV Urbani / Binding of serum 6 to looped/cyclic peptides of protein M of SARS-CoV Urbani / Binding of serum 37 to looped/cyclic peptides of protein M of SARS-CoV Urbani / Binding of serum 6 to linear peptides of protein X3 of SARS-CoV Urbani / Binding of serum 37 to linear peptides of protein X3 of SARS-CoV Urbani / Binding of serum 37 to looped/cyclic peptides of protein X3 of SARS-CoV Urbani / Binding of serum 6 to linear peptides of protein X4 of SARS-CoV Urbani / Binding of serum 37 to linear peptides of protein X4 of SARS-CoV Urbani / Binding of serum 37 to looped/cyclic peptides of protein X4 of SARS-CoV Urbani / Binding of serum 6 to linear peptides of protein X5 of SARS-CoV Urbani / Binding of serum 37 to linear peptides of protein X5 of SARS-CoV Urbani / Binding of serum 37 to looped/cyclic peptides of protein X5 of SARS-CoV Urbani / Binding of serum 6 to linear peptides of protein N of SARS-CoV Urbani / Binding of serum 37 to linear peptides of protein N of SARS-CoV Urbani / Binding of serum 6 to linear peptide (PEPSCAN-ELISA) / Binding of serum 1a to looped/cyclic peptides of protein N of SARS-CoV Urbani / Binding of serum 1b to looped/cyclic peptides of protein N of SARS-CoV Urbani / Binding of serum 2 to looped/cyclic peptides of protein N of SARS-CoV Urbani / Binding of serum 6 to looped/cyclic peptides of protein N of SARS-CoV Urbani / Binding of serum 37 to looped/cyclic peptides of protein N of SARS-CoV Urbani / Binding of serum 62 to looped/cyclic peptides of protein N of SARS-CoV Urbani / Binding of serum London to looped/cyclic peptides of protein N of SARS-CoV Urbani / Binding of serum SARS-green to looped/cyclic peptides of protein N of SARS-CoV Urbani: unit not given here"}, "[2]": {"tested_on": "control sera (pooled serum of ten healthy LUMC hospital workers; commercial negative donor pooled serum from the Dutch bloodbank)", "type": "binding, human", "parameters": "Binding of Control serum LUMC to linear peptides / Binding of Control serum Blood-bank to linear peptides / Binding of Control serum LUMC to looped peptides / Binding of Control Serum Blood-Bank to Looped peptides / Binding of Control serum LUMC to linear peptides of the protein M of SARS-CoV Urbani / Binding of Control serum Blood-bank to linear peptides of the protein M of SARS-CoV Urbani / Binding of Control serum LUMC to looped peptides of the protein M of SARS-CoV Urbani / Binding of Control Serum Blood-Bank to Looped peptides of the protein M of SARS-CoV Urbani: unit not given here"}, "[3]": {"tested_on": "rabbit serum obtained by immunizing a rabbit with the SARS-CoV strain Frankfurt 1", "type": "binding", "parameters": "Binding of a rabbit serum to linear peptides / Binding of a rabbit serum to looped peptides / Rabbit serum linear peptides / Rabbit serum looped peptides / Binding of a rabbit serum to linear peptides of protein N of SARS-CoV Urbani (Rabbit serum linear peptides) / Binding of a rabbit serum to looped/cyclic peptides of protein N of SARS-CoV Urbani (Rabbit serum looped peptides): unit not given here"}}}
{"sequence": "MACIVGLMWLSYFVA", "values": [{"measurement": "Binding of serum 1a to linear peptides of protein M of SARS-CoV Urbani", "setting": "[1]", "value": 0.7}, {"measurement": "Binding of serum 1a to looped/cyclic peptides of protein M of SARS-CoV Urbani", "setting": "[1]", "value": 0.7}, {"measurement": "Binding of serum 1b to linear peptides of protein M of SARS-CoV Urbani", "setting": "[1]", "value": 0.5}, {"measurement": "Binding of serum 1b to looped/cyclic peptides of protein M of SARS-CoV Urbani", "setting": "[1]", "value": 0.4}, {"measurement": "Binding of serum 2 to linear peptides of protein M of SARS-CoV Urbani", "setting": "[1]", "value": 0.4}, {"measurement": "Binding of serum 2 to looped/cyclic peptides of protein M of SARS-CoV Urbani", "setting": "[1]", "value": 0.4}, {"measurement": "Binding of serum 6 to linear peptides of protein M of SARS-CoV Urbani", "setting": "[1]", "value": 0.3}, {"measurement": "Binding of serum 6 to looped/cyclic peptides of protein M of SARS-CoV Urbani", "setting": "[1]", "value": 0.5}, {"measurement": "Binding of serum 37 to linear peptides of protein M of SARS-CoV Urbani", "setting": "[1]", "value": 0.4}, {"measurement": "Binding of serum 37 to looped/cyclic peptides of protein M of SARS-CoV Urbani", "setting": "[1]", "value": 0.4}, {"measurement": "Binding of serum 62 to linear peptides of protein M of SARS-CoV Urbani", "setting": "[1]", "value": 0.4}, {"measurement": "Binding of serum 62 to looped/cyclic peptides of protein M of SARS-CoV Urbani", "setting": "[1]", "value": 0.5}, {"measurement": "Binding of serum London to linear peptides of protein M of SARS-CoV Urbani", "setting": "[1]", "value": 0.3}, {"measurement": "Binding of serum London to looped/cyclic peptides of protein M of SARS-CoV Urbani", "setting": "[1]", "value": 0.2}, {"measurement": "Binding of serum SARS-green to linear peptides of protein M of SARS-CoV Urbani", "setting": "[1]", "value": 0.3}, {"measurement": "Binding of serum SARS-green to looped/cyclic peptides of protein M of SARS-CoV Urbani", "setting": "[1]", "value": 0.2}, {"measurement": "Binding of serum SARS-yellow to linear peptides of protein M of SARS-CoV Urbani", "setting": "[1]", "value": 0.2}, {"measurement": "Binding of serum SARS-yellow to looped/cyclic peptides of protein M of SARS-CoV Urbani", "setting": "[1]", "value": 0.4}, {"measurement": "Binding of Control Serum Blood-Bank to Looped peptides of the protein M of SARS-CoV Urbani", "setting": "[2]", "value": 0.4}, {"measurement": "Binding of Control serum Blood-bank to linear peptides of the protein M of SARS-CoV Urbani", "setting": "[2]", "value": 0.5}, {"measurement": "Binding of Control serum LUMC to linear peptides of the protein M of SARS-CoV Urbani", "setting": "[2]", "value": 0.5}, {"measurement": "Binding of Control serum LUMC to looped peptides of the protein M of SARS-CoV Urbani", "setting": "[2]", "value": 0.6}, {"measurement": "Rabbit serum linear peptides", "setting": "[3]", "value": 0.2}, {"measurement": "Rabbit serum looped peptides", "setting": "[3]", "value": 0.0}]}
{"sequence": "TIPLQASLPFGWLVI", "values": [{"measurement": "Binding of serum 1a to linear peptides of protein X1 of SARS-CoV Urbani", "setting": "[1]", "value": 0.8}, {"measurement": "Binding of serum 1a to looped/cyclic peptide (PEPSCAN-ELISA)", "setting": "[1]", "value": 0.6}, {"measurement": "Binding of serum 1b to linear peptides of protein X1 of SARS-CoV Urbani", "setting": "[1]", "value": 0.5}, {"measurement": "Binding of serum 1b to looped/cyclic peptide (PEPSCAN-ELISA)", "setting": "[1]", "value": 0.4}, {"measurement": "Binding of serum 2 to linear peptides of protein X1 of SARS-CoV Urbani", "setting": "[1]", "value": 0.6}, {"measurement": "Binding of serum 2 to looped/cyclic peptide (PEPSCAN-ELISA)", "setting": "[1]", "value": 0.5}, {"measurement": "Binding of serum 6 to linear peptides of protein X1 of SARS-CoV Urbani", "setting": "[1]", "value": 0.5}, {"measurement": "Binding of serum 6 to looped/cyclic peptide (PEPSCAN-ELISA)", "setting": "[1]", "value": 0.4}, {"measurement": "Binding of serum 37 to linear peptides of protein X1 of SARS-CoV Urbani", "setting": "[1]", "value": 0.7}, {"measurement": "Binding of serum 37 to looped/cyclic peptide (PEPSCAN-ELISA)", "setting": "[1]", "value": 0.6}, {"measurement": "Binding of serum 62 to linear peptides of protein X1 of SARS-CoV Urbani", "setting": "[1]", "value": 0.8}, {"measurement": "Binding of serum 62 to looped/cyclic peptide (PEPSCAN-ELISA)", "setting": "[1]", "value": 0.7}, {"measurement": "Binding of serum London to linear peptides of protein X1 of SARS-CoV Urbani", "setting": "[1]", "value": 0.3}, {"measurement": "Binding of serum London to looped/cyclic peptide (PEPSCAN-ELISA)", "setting": "[1]", "value": 0.2}, {"measurement": "Binding of serum SARS-green to linear peptides of protein X1 of SARS-CoV Urbani", "setting": "[1]", "value": 0.4}, {"measurement": "Binding of serum SARS-green to looped/cyclic peptide (PEPSCAN-ELISA)", "setting": "[1]", "value": 0.4}, {"measurement": "Binding of serum SARS-yellow to linear peptides of protein X1 of SARS-CoV Urbani", "setting": "[1]", "value": 0.4}, {"measurement": "Binding of serum SARS-yellow to looped/cyclic peptide (PEPSCAN-ELISA)", "setting": "[1]", "value": 0.5}, {"measurement": "Binding of Control Serum Blood-Bank to Looped peptides", "setting": "[2]", "value": 0.7}, {"measurement": "Binding of Control serum Blood-bank to linear peptides", "setting": "[2]", "value": 0.8}, {"measurement": "Binding of Control serum LUMC to linear peptides", "setting": "[2]", "value": 0.7}, {"measurement": "Binding of Control serum LUMC to looped peptides", "setting": "[2]", "value": 0.7}, {"measurement": "Binding of a rabbit serum to linear peptides", "setting": "[3]", "value": 0.1}, {"measurement": "Binding of a rabbit serum to looped peptides", "setting": "[3]", "value": 0.5}]}
{"sequence": "LLKTHRMCKYTQSTA", "values": [{"measurement": "Binding of serum 1a to linear peptides of protein X2", "setting": "[1]", "value": 0.8}, {"measurement": "Binding of serum 1a to looped/cyclic peptides of protein X2 of SARS-CoV Urbani", "setting": "[1]", "value": 0.4}, {"measurement": "Binding of serum 1b to linear peptides of protein X2", "setting": "[1]", "value": 0.5}, {"measurement": "Binding of serum 1b to looped/cyclic peptides of protein X2 of SARS-CoV Urbani", "setting": "[1]", "value": 0.3}, {"measurement": "Binding of serum 2 to linear peptides of protein X2", "setting": "[1]", "value": 0.6}, {"measurement": "Binding of serum 2 to looped/cyclic peptides of protein X2 of SARS-CoV Urbani", "setting": "[1]", "value": 0.2}, {"measurement": "Binding of serum 6 to linear peptides of protein X2", "setting": "[1]", "value": 0.6}, {"measurement": "Binding of serum 6 to looped/cyclic peptides of protein X2 of SARS-CoV Urbani", "setting": "[1]", "value": 0.3}, {"measurement": "Binding of serum 37 to linear peptides of protein X2", "setting": "[1]", "value": 0.7}, {"measurement": "Binding of serum 37 to looped/cyclic peptides of protein X2 of SARS-CoV Urbani", "setting": "[1]", "value": 0.2}, {"measurement": "Binding of serum 62 to linear peptides of protein X2", "setting": "[1]", "value": 0.7}, {"measurement": "Binding of serum 62 to looped/cyclic peptides of protein X2 of SARS-CoV Urbani", "setting": "[1]", "value": 0.4}, {"measurement": "Binding of serum London to linear peptides of protein X2", "setting": "[1]", "value": 0.5}, {"measurement": "Binding of serum London to looped/cyclic peptides of protein X2 of SARS-CoV Urbani", "setting": "[1]", "value": 0.2}, {"measurement": "Binding of serum SARS-green to linear peptides of protein X2", "setting": "[1]", "value": 0.6}, {"measurement": "Binding of serum SARS-green to looped/cyclic peptides of protein X2 of SARS-CoV Urbani", "setting": "[1]", "value": 0.2}, {"measurement": "Binding of serum SARS-yellow to linear peptides of protein X2", "setting": "[1]", "value": 0.8}, {"measurement": "Binding of serum SARS-yellow to looped/cyclic peptides of protein X2 of SARS-CoV Urbani", "setting": "[1]", "value": 0.2}, {"measurement": "Binding of Control Serum Blood-Bank to Looped peptides", "setting": "[2]", "value": 0.4}, {"measurement": "Binding of Control serum Blood-bank to linear peptides", "setting": "[2]", "value": 0.7}, {"measurement": "Binding of Control serum LUMC to linear peptides", "setting": "[2]", "value": 0.6}, {"measurement": "Binding of Control serum LUMC to looped peptides", "setting": "[2]", "value": 0.4}, {"measurement": "Binding of a rabbit serum to linear peptides", "setting": "[3]", "value": 0.5}, {"measurement": "Binding of a rabbit serum to looped peptides", "setting": "[3]", "value": 0.3}]}
